# Data: ChEMBL document CHEMBL4359925, “Rational discovery of a highly novel and selective mTOR inhibitor” (Bioorg Med Chem Lett, 2019)
# Active and inactive are the calls of the source. No cut-off for these calls is given here.
# Columns and labels:
# [1] = Cmax in rat at 3 mg/kg, po; format: ADME, organism-based; set-up: dose 3 mg/kg, route oral; conditions: in vivo
# [2] = Tmax in dog at 30 mg/kg, po; format: ADME, organism-based, Canis lupus familiaris; conditions: in vivo
# [3] = Cmax in dog at 0.45 mg/kg, po; format: ADME, organism-based, Canis lupus familiaris; set-up: dose 0.45 mg/kg, route oral; conditions: in vivo
# [4] = Tmax in rat at 31 mg/kg, po; format: ADME, organism-based; conditions: in vivo
# [5] = Half-life in rat at 30 mg/kg, po; format: ADME, organism-based; conditions: in vivo
# [6] = system: NCI-H460; assay: Synergistic antiproliferative activity against human H460 cells harboring LKB1 mutant in presence of gemcitabine; format: functional, cell-based
# [7] = Volume of distribution at steady state in dog at 0.2 mg/kg, iv; format: ADME, organism-based, Canis lupus familiaris; conditions: in vivo, read-out: Vdss
# [8] = system: DU-145; assay: Antiproliferative activity against human DU145 cells; format: functional, cell-based
# [9] = system: BT-474; assay: Antiproliferative activity against human BT474; format: functional, cell-based
# [10] = Volume of distribution at steady state in rat at 0.8 mg/kg, iv; format: ADME, organism-based; conditions: in vivo, read-out: Vdss
# [11] = Cmax in mouse at 8.7 mg/kg, po; format: ADME, organism-based; set-up: dose 8.7 mg/kg, route oral; conditions: in vivo
# [12] = Cmax in dog at 30 mg/kg, po; format: ADME, organism-based, Canis lupus familiaris; set-up: dose 30 mg/kg, route oral; conditions: in vivo
# [13] = Tmax in mouse at 8.7 mg/kg, po; format: ADME, organism-based; conditions: in vivo
# [14] = Tmax in rat at 160 mg/kg, po; format: ADME, organism-based; conditions: in vivo
# [15] = system: NCI-H1650; assay: Antiproliferative activity against human NCI-H1650 cells; format: functional, cell-based
# [16] = system: A549; assay: Synergistic antiproliferative activity against human A549 cells harboring LKB1 mutant in presence of gemcitabine; format: functional, cell-based
# [17] = system: NCI-H1395; assay: Additive antiproliferative activity against human NCI-H1395 cells harboring LKB1 mutant in presence of erlotinib; format: functional, cell-based
# [18] = system: NCI-H1650; assay: Additive antiproliferative activity against human NCI-H1650 cells harboring EGFR E746-A750del mutant in presence of erlotinib; format: functional, cell-based
# [19] = Tmax in rat at 100 mg/kg, po; format: ADME, organism-based; conditions: in vivo
# [20] = Half-life in rat at 4.1 mg/kg, po; format: ADME, organism-based; conditions: in vivo
# [21] = system: NCI-H1395; assay: Additive antiproliferative activity against human NCI-H1395 cells harboring BRAF G469A in presence of erlotinib; format: functional, cell-based
# [22] = system: A549; assay: Synergistic antiproliferative activity against human A549 cells harboring KRAS G12S mutant in presence of erlotinib; format: functional, cell-based
# [23] = system: NCI-H292; assay: Additive antiproliferative activity against human NCI-H292 cells in presence of erlotinib; format: functional, cell-based
# [24] = system: A549; assay: Synergistic antiproliferative activity against human A549 cells harboring KRAS G12S mutant in presence of gemcitabine; format: functional, cell-based
# [25] = Half-life in rat at 100 mg/kg, po; format: ADME, organism-based; conditions: in vivo
# [26] = Cmax in rat at 93 mg/kg, po; format: ADME, organism-based; set-up: dose 93 mg/kg, route oral; conditions: in vivo
# [27] = Cmax in mouse at 10.4 mg/kg, iv; format: ADME, organism-based; set-up: dose 10.4 mg/kg, route intravenous; conditions: in vivo
# [28] = Cmax in rat at 100 mg/kg, po; format: ADME, organism-based; set-up: dose 100 mg/kg, route oral; conditions: in vivo
# [29] = Tmax in dog at 0.45 mg/kg, po; format: ADME, organism-based, Canis lupus familiaris; conditions: in vivo
# [30] = system: HT-29; assay: Antiproliferative activity against human HT-29; format: functional, cell-based
# [31] = Cmax in rat at 4.9 mg/kg, po; format: ADME, organism-based; set-up: dose 4.9 mg/kg, route oral; conditions: in vivo
# [32] = Clearance in mouse at 10.4 mg/kg, iv; format: ADME, organism-based; conditions: in vivo
# [33] = Cmax in mouse at 26 mg/kg, po; format: ADME, organism-based; set-up: dose 26 mg/kg, route oral; conditions: in vivo
# [34] = Half-life in rat at 0.8 mg/kg, iv; format: ADME, organism-based; conditions: in vivo
# [35] = Half-life in dog at 10 mg/kg, po; format: ADME, organism-based, Canis lupus familiaris; conditions: in vivo
# [36] = Cmax in rat at 30 mg/kg, po; format: ADME, organism-based; set-up: dose 30 mg/kg, route oral; conditions: in vivo
# [37] = system: A2780; assay: Antiproliferative activity against human A2780; format: functional, cell-based
# [38] = Tmax in mouse at 26 mg/kg, po; format: ADME, organism-based; conditions: in vivo
# [39] = system: NCI-H460; assay: Synergistic antiproliferative activity against human H460 cells harboring LKB1 mutant in presence of erlotinib; format: functional, cell-based
# [40] = system: NCI-H292; assay: Additive antiproliferative activity against human NCI-H292 cells in presence of gemcitabine; format: functional, cell-based
# [41] = system: NCI-H1395; assay: Additive antiproliferative activity against human NCI-H1395 cells harboring BRAF G469A in presence of gemcitabine; format: functional, cell-based
# [42] = system: NCI-H460; assay: Synergistic antiproliferative activity against human H460 cells harboring KRAS […] mutant in presence of gemcitabine
# [43] = Volume of distribution at steady state in mouse at 2.8 mg/kg, iv; format: ADME, organism-based; conditions: in vivo, read-out: Vdss
# [44] = Half-life in dog at 0.2 mg/kg, iv; format: ADME, organism-based, Canis lupus familiaris; conditions: in vivo
# [45] = Tmax in dog at 10 mg/kg, po; format: ADME, organism-based, Canis lupus familiaris; conditions: in vivo
# [46] = system: HCT-116; assay: Antiproliferative activity against human HCT116; format: functional, cell-based
# [47] = Tmax in rat at 30 mg/kg, po; format: ADME, organism-based; conditions: in vivo
smiles,measurement,setting,value
CC(F)(F)CN1C(=O)[C@]2(C)COCCN2c2nc(-c3ccc(NC(=O)NC4CC4)cc3)ncc21,Cmax,[1],176 ng/mL
same,Tmax,[2],7.3 h
same,Cmax,[3],250 ng/mL
same,Tmax,[4],8 to 19.3 h
same,half-life,[5],9 to 13.5 h
same,Activity,[6],Active
same,Vd,[7],1.12 L/kg
same,Activity,[8],Active
same,Activity,[9],Active
same,Vd,[10],0.951 L/kg
same,Cmax,[11],5370 ng/mL
same,Cmax,[12],726 ng/mL
same,Tmax,[13],4 h
same,Tmax,[14],10 h
same,Activity,[15],Active
same,Activity,[16],Active
same,Activity,[17],Active
same,Activity,[18],Active
same,Tmax,[19],4.7 to 14.7 h
same,half-life,[20],15.2 h
same,Activity,[21],Active
same,Activity,[22],Active
same,Activity,[23],Active
same,Activity,[24],Active
same,half-life,[25],14.7 to 15 h
same,Cmax,[26],7220 ng/mL
same,Cmax,[27],17700 ng/mL
same,Cmax,[28],3670 to 6410 ng/mL
same,Tmax,[29],4 h
same,Activity,[30],Active
same,Cmax,[31],1190 ng/mL
same,clearance,[32],4 mL/min/kg
same,Cmax,[33],11100 ng/mL
same,half-life,[34],1.8 h
same,half-life,[35],9.9 h
same,Cmax,[36],1850 to 2400 ng/mL
same,Activity,[37],Active
same,Tmax,[38],6 h
same,Activity,[39],Active
same,Activity,[40],Active
same,Activity,[41],Active
same,Activity,[42],Active
same,Vd,[43],1.66 L/kg
same,half-life,[44],7.5 h
same,Tmax,[45],10.7 h
same,Activity,[46],Active
same,Tmax,[47],4 to 8 h
